Test results taken from the NIST ThermoML archive (doi:10.1021/acs.jced.5b00369).

Test: relative permittivity at zero frequency (dimensionless); xn = mol fraction of the nth substance listed
Details: 101 kPa, Liquid, two-terminal dielectric cell

CC[N+](=O)[O-] [nitroethane] + Cc1ccc(C)cc1
298.15 K
Details	relative permittivity at zero frequency
x1 = 0.001685	2.2782
x1 = 0.009202	2.35917
x1 = 0.01833	2.45822
x1 = 0.02729	2.55599
x1 = 0.03608	2.65295
x1 = 0.04032	2.69936
x1 = 0.05043	2.81296
x1 = 0.05899	2.91009
x1 = 0.0674	3.00647
x1 = 0.07566	3.10223

CC[N+](=O)[O-] [nitroethane] + ClC(Cl)(Cl)Cl
298.15 K
Details	relative permittivity at zero frequency
x1 = 0.003529	2.27902
x1 = 0.00724	2.3313
x1 = 0.01443	2.4321
x1 = 0.02153	2.53048
x1 = 0.02851	2.62767
x1 = 0.0311	2.6639
x1 = 0.03397	2.7038
x1 = 0.04093	2.80121
x1 = 0.04779	2.89785
x1 = 0.05456	2.9938

C[N+](=O)[O-] [nitromethane] + c1ccccc1
Details	relative permittivity at zero frequency
298.15 K, x1 = 0.000817	2.28834
298.15 K, x1 = 0.001228	2.294
298.15 K, x1 = 0.001638	2.29956
298.15 K, x1 = 0.002045	2.30518
298.15 K, x1 = 0.00245	2.31071
298.15 K, x1 = 0.003332	2.32281
298.15 K, x1 = 0.003559	2.32593
298.15 K, x1 = 0.004459	2.33824
298.15 K, x1 = 0.005656	2.35464
298.15 K, x1 = 0.006833	2.37085
298.15 K, x1 = 0.007322	2.37753
298.15 K, x1 = 0.007982	2.38639
298.15 K, x1 = 0.01242	2.44757
298.15 K, x1 = 0.01595	2.49623
298.15 K, x1 = 0.02031	2.55663
298.15 K, x1 = 0.02465	2.61628
298.15 K, x1 = 0.0332	2.7354
298.15 K, x1 = 0.04458	2.89495
298.15 K, x1 = 0.05494	3.03914
298.15 K, x1 = 0.06641	3.20367
298.15 K, x1 = 0.08012	3.40373
318.15 K, x1 = 0.000437	2.19342
318.15 K, x1 = 0.0008868	2.19856
318.15 K, x1 = 0.001333	2.20368
318.15 K, x1 = 0.001778	2.20876
318.15 K, x1 = 0.002219	2.21383
318.15 K, x1 = 0.002658	2.2188
318.15 K, x1 = 0.003857	2.23245
318.15 K, x1 = 0.004835	2.24352
318.15 K, x1 = 0.006131	2.25821
318.15 K, x1 = 0.007631	2.27516
318.15 K, x1 = 0.009325	2.29411
318.15 K, x1 = 0.01132	2.31664
318.15 K, x1 = 0.01305	2.33622
318.15 K, x1 = 0.0149	2.35704
318.15 K, x1 = 0.01628	2.37368
318.15 K, x1 = 0.02047	2.42114
318.15 K, x1 = 0.02519	2.47484
318.15 K, x1 = 0.03005	2.53001
318.15 K, x1 = 0.0345	2.58032
318.15 K, x1 = 0.04273	2.67386
318.15 K, x1 = 0.05416	2.80502
318.15 K, x1 = 0.06683	2.9527
318.15 K, x1 = 0.07816	3.08644
318.15 K, x1 = 0.09171	3.24999
